# Read-outs that look alike come from different tables or passages of the source.
# Legend:
# [1] = system: SVR angiosarcoma xenografts
# [2] = system: rat aortic ring explant cultures; conditions: for inhibition of microvessel growth: day 8; for inhibition of microvessel growth relative to vehicle-treated control cultures: day 8 (peak of microvessel growth), serum-free EBM
# [3] = system: PAEC-VEGF-Matrigel implants; conditions: 250 mg/kg/dose p.o. QD for 6 days, nude mice, p<0.05
# [4] = system: human umbilical vein endothelial cells (HUVECs); assay: Capillary tube formation by HUVECs on Matrigel in vitro; conditions: for inhibition of complete capillary tube formation relative to vehicle-treated control cultures: 18 h incubation
Compound,morbidity or mortality of treated mice ([1]; 250 mg/kg/dose p.o. QD for 10 days),"inhibition of tumor growth ([1]; 250 mg/kg/dose p.o. QD, as early as day 4 of dosing, p<0.005)","maximum inhibition of tumor volume relative to TW:PG vehicle-treated mice ([1]; 250 mg/kg/dose p.o. QD, day 10 of dosing, p<0.001) [%]",inhibition of microvessel growth ([2]; 0.4 μM),inhibition of microvessel growth ([2]; 4 μM),"inhibition of microvessel growth relative to vehicle-treated control cultures ([2]; 40 μM, p<0.05) [%]","inhibition of microvessel growth relative to vehicle-treated control cultures ([2]; 100 μM, p<0.01) [%]",reduction in neovascularization (hemoglobin content) relative to TW:PG vehicle-treated control mice [3] [%],inhibition of complete capillary tube formation relative to vehicle-treated control cultures ([4]; 4 μM) [%],"inhibition of complete capillary tube formation relative to vehicle-treated control cultures ([4]; 40 μM, p<0.05) [%]","inhibition of complete capillary tube formation relative to vehicle-treated control cultures ([4]; 100 μM, p<0.05) [%]","cytotoxicity to human endothelial cells in culture ([4]; 4, 40 and 100 μM)","maximum reduction in SVR tumor volume relative to vehicle-treated control mice ([1]; 30 mg/kg/dose s.c. Q2D×3, by day 10) [%]"
"Cc1c(-c2cnccn2)ssc1=S [Oltipraz, 5-(2-pyrazinyl)-4-methyl-1,2-dithiol-3-thione]",absence of apparent morbidity or mortality,significant inhibition of tumor growth,81,not inhibitory,not inhibitory,50,95,42,23,62,52,absence of cytotoxicity,
CO[C@@H]1[C@H](OC(=O)NC(=O)CCl)CC[C@]2(CO2)[C@H]1[C@@]1(C)O[C@@H]1CC=C(C)C [TNP470],,,,,,,,,,,,,80
